Experimental data reported in ChEMBL document CHEMBL1201862, “PubChem BioAssay data set” (2004).
Active and inactive are the calls of the source.

Assays:
HEK293 [1] = experiment: cells; format: functional, cell-based; settings: Homo sapiens
HEK293 [2] = experiment: cells; format: functional, cell-based; settings: Homo sapiens; remark: listed apart in the source
HEK293 [3] = experiment: NOD2 signaling inhibitors in MDP-stimulated cells, cell-based, uHTS, luminescence (AID 2001); format: functional; settings: Homo sapiens
[4] = HEK-293T viability loss after treatment – luminescence, T-cell screen hits, cytotoxicity control for TCR NF-kB inhibitor project, dose response (AID 489026); format: functional, cell-based;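 also: cells exposed to compound about 14 hours before the viability readout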
HEK293 [5] = experiment: inhibition of NOD1-driven NF-kB reporter – cell-based, luminescence, uHTS, primary screen (AID 1578); format: functional; settings: Homo sapiens
Vero [6] = experiment: viability of Vero cells under compound – cytotoxicity control for flavivirus capping enzyme inhibitors (AID 588742); format: functional; settings: Chlorocebus sabaeus
[7] = target: Glucose-6-phosphate 1-dehydrogenase (Homo sapiens, UniProt P11413); experiment: inhibition of Homo sapiens G6PD, dose series – biochemical, fluorescence, selectivity assay for P. falciparum G6PD inhibitor project, dose response (AID 504792); format: functional
[8] = NIH3T3 cell viability loss – ATP luminescence, mouse fibroblasts, counter-screen, dose response (AID 2010); format: functional, cell-based;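 also: cells exposed to compound for about 90 hours before reading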
Fatty acid synthase [9] = target: T1, Fatty acid synthase (Homo sapiens, UniProt P49327); experiment: inhibition of human FAS-TE enzyme activity – biochemical, endpoint fluorescence intensity, uHTS hits, dose response (AID 624327); format: functional;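 also: fluorescence from hydrolysis of an O-methyl fluorescein acyl ester substrate by the enzyme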
[10] = target: T2, Type-1 angiotensin II receptor (Homo sapiens, UniProt P30556); experiment: antagonism of angiotensin II type 1 receptor – cell-based, uHTS hits, selectivity assay for APJ receptor antagonist project, dose response (AID 463214); format: functional;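 also: antagonist potency against angiotensin II stimulated AT1 response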
T2 sequence (P30556 whole entry): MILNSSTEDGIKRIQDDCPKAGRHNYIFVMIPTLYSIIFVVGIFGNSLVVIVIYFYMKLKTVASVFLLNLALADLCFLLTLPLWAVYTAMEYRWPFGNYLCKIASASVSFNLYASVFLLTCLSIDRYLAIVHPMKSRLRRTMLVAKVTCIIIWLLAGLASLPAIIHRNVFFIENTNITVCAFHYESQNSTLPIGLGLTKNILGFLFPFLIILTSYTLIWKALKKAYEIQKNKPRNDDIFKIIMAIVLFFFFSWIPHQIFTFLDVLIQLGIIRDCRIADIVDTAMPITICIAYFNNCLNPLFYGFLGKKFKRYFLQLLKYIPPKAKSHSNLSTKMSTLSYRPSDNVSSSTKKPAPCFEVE

[11] = Trypanosoma cruzi growth suppression in host cells – NIH3T3 host cells, beta-gal luminescence, confirmation (AID 2044); format: functional, cell-based;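 also: intracellular parasites grown in NIH/3T3 mouse fibroblasts as host cells; luminescent beta-galactosidase reporter signal from transgenic T. cruzi replicating inside host cells; inhibitors lower the luminescence signal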
Fatty acid synthase [12] = target: T1, Fatty acid synthase; experiment: inhibition of human FAS-TE enzyme activity – biochemical, kinetic fluorescence intensity, dose response (AID 624326); format: functional;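 also: rate of fluorescence rise from hydrolysis of a fluorogenic O-methyl fluorescein ester substrate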
[13] = loss of viability in HepG2 cells – cell-based, CellTiter-Glo, cherry-picked, cytotoxicity control for Shn3 inhibitor project, dose response (AID 624134); format: functional
[14] = non-specific 3'UTR reporter inhibition in Clone20-Shn3RL – cell-based, Renilla luciferase, cherry-picked, counter-screen for Shn3 inhibitor project, dose response (AID 624133); format: functional
Beta-galactosidase = Beta-galactosidase (Escherichia coli, UniProt Q8VNN2); experiment: PubChem AID 485352; format: functional
[15] = test system: Streptococcus sp. 'group A'; experiment: Streptococcus pyogenes SK(-)GAS viability under kanamycin – luminescence, BacTiterGlo, confirmation, counter-screen for streptokinase expression inhibitor project, dose response (AID 1900); format: functional, organism-based
[16] = reduction of Shn3 3'UTR-driven luciferase in osteoblasts – cell-based, Clone20 osteoblasts, firefly luciferase, cherry-picked, dose response (AID 624132); format: functional;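 also: firefly luciferase luminescence from reporter carrying the Shn3 3'UTR in osteoblasts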
Genome polyprotein = Genome polyprotein (dengue virus type 2, UniProt P29990); experiment: flavivirus cap methylation enzyme inhibition – biochemical, confirmation dose response, primary screen (AID 588689); format: functional
Streptococcus = experiment: GAS UMAA2166 growth inhibition – luminescence, BacTiterGlo, counter-screen for streptokinase expression inhibitor project, dose response (AID 1915); format: functional, organism-based;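 also: potency for reduction of bacterial viability or growth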
Streptokinase A = target: T3, Streptokinase A (Streptococcus pyogenes serotype M1, UniProt P10520); experiment: viability-normalized secreted streptokinase activity reduction – plasminogen activation absorbance, OD405, dose response (AID 1914); format: functional, Streptococcus pyogenes M1 GAS;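 also: secreted streptokinase activity via plasminogen activation per viability signal from cell pellet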
T3 sequence (P10520 whole entry): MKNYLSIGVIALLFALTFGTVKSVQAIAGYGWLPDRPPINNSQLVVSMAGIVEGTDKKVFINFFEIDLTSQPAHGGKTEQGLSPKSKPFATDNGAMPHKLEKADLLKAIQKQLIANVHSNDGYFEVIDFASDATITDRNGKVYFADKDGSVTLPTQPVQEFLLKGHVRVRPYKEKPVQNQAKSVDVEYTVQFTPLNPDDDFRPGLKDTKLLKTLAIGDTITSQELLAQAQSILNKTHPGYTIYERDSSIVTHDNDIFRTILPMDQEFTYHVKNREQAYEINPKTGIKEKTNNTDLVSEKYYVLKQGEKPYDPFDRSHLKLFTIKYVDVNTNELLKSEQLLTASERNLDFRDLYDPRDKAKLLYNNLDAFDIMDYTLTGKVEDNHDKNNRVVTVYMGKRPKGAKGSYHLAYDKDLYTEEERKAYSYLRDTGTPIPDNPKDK

Vero [17] = experiment: cells; format: functional, cell-based; settings: Chlorocebus sabaeus
[18] = Luminescence Cell-Based Dose Retest to Confirm Inhibitors of Cancer Stem Cells. [Related pubchem assays (depositor defined):AID2717, AID2721]; format: functional; settings: Homo sapiens
[19] = MIN6 cell viability loss – mouse insulinoma, cytotoxicity control, dose response (AID 2122); format: functional;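 also: confirmatory high-throughput counterscreen run to flag cytotoxic compounds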
Vero [20] = experiment: mammalian cell viability reduction – secondary assay, cytotoxicity control for West Nile virus antiviral project, dose response (AID 1650); format: functional; settings: Chlorocebus sabaeus
[21] = decrease of insulin promoter-GFP reporter – imaging, high-content screening, mouse beta cells (AID 1628); format: functional; settings: MIN6
[22] = target: T4, Corticotropin-releasing factor receptor 2/Corticotropin-releasing factor-binding protein (Homo sapiens, UniProt P24387+Q13324); experiment: Dose Response confirmation of uHTS hits for small molecule antagonists of the CRF-binding protein and CRF-R2 receptor complex.; format: functional; settings: read-out: IC50_Mean
T4 sequence (Q13324 whole entry): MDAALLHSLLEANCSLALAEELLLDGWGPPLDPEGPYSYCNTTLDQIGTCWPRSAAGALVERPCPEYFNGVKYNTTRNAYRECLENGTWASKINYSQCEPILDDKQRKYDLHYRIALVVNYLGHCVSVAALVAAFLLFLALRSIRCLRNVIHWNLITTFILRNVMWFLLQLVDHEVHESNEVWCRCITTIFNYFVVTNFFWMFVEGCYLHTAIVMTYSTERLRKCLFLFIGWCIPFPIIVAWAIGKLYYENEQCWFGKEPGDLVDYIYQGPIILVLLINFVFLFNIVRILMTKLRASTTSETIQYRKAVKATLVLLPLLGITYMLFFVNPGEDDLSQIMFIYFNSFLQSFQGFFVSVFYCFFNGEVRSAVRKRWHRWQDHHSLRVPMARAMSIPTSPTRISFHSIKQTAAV
T4 sequence (P24387 whole entry): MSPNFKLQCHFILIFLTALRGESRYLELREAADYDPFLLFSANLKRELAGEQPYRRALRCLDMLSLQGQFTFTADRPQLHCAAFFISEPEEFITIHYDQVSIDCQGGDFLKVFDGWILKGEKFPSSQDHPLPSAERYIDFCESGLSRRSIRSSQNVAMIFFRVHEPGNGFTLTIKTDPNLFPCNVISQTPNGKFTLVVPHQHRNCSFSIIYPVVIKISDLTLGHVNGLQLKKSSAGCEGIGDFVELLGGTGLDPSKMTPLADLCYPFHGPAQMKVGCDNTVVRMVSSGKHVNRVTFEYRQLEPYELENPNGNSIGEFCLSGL

Vero [23] = experiment: cells; format: functional; settings: Chlorocebus sabaeus
[24] = target: T4, Corticotropin-releasing factor receptor 2/Corticotropin-releasing factor-binding protein; experiment: activators of CRF receptor 2 with binding protein – uHTS hits, confirmation (AID 602473); format: functional; settings: read-out: EC50_Mean
BJ [25] = experiment: cells; format: functional, cell-based; settings: Homo sapiens
[26] = DRD fibroblast viability loss – cell-based, non-viral oncogenic, luminescence, dose response (AID 1934); format: functional; settings: Homo sapiens
BJ [27] = experiment: BJ-TERT fibroblast viability loss – cell-based, RAS-independent, luminescence, dose response (AID 1933); format: functional; settings: Homo sapiens
BJ [28] = experiment: BJ-TERT-LT-ST fibroblast viability loss – cell-based, RAS-independent, luminescence, dose response (AID 1935); format: functional; settings: Homo sapiens;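 also: BJ fibroblasts immortalized with TERT plus LT and ST oncogenes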
[29] = Vero E6 cell cytotoxicity, dose response, cytotoxicity control for non-replicating M. tuberculosis project, secondary assay (AID 492998); format: functional, VeroE6; settings: Vero C1008
Paired box protein Pax-8 = Paired box protein Pax-8 (Homo sapiens, UniProt Q06710); experiment: PAX8 transcriptional activity inhibition in RMG-I – RMG-I cells, luciferase, cherry-pick, dose response (AID 687027); format: functional, cell-based;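 also: luciferase reporter driven by Pax8 target thyroperoxidase promoter measured by SteadyGlo luminescence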
cells = format: functional
[30] = HepG2 cell cytotoxicity, dose response, cytotoxicity control for non-replicating M. tuberculosis project (AID 489018); format: functional; settings: Mycobacterium tuberculosis
[31] = THP-1 cell cytotoxicity, dose response, cytotoxicity control for non-replicating M. tuberculosis project (AID 489025); format: functional

Glucose-6-phosphate 1-dehydrogenase, sequence (P11413 whole entry): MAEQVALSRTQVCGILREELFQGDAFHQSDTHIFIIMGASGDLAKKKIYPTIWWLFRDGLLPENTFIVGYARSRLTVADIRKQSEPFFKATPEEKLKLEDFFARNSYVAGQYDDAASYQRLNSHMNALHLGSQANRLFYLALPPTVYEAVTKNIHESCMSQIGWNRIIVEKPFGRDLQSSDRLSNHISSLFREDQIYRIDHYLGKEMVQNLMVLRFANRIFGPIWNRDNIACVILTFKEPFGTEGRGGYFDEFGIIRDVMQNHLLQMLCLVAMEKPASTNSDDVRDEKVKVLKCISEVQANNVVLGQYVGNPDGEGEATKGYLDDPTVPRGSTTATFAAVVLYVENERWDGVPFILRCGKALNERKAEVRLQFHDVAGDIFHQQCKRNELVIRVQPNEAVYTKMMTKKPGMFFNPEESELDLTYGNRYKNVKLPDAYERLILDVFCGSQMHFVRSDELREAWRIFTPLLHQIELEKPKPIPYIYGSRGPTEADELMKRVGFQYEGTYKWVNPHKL
T1 sequence (P49327 whole entry): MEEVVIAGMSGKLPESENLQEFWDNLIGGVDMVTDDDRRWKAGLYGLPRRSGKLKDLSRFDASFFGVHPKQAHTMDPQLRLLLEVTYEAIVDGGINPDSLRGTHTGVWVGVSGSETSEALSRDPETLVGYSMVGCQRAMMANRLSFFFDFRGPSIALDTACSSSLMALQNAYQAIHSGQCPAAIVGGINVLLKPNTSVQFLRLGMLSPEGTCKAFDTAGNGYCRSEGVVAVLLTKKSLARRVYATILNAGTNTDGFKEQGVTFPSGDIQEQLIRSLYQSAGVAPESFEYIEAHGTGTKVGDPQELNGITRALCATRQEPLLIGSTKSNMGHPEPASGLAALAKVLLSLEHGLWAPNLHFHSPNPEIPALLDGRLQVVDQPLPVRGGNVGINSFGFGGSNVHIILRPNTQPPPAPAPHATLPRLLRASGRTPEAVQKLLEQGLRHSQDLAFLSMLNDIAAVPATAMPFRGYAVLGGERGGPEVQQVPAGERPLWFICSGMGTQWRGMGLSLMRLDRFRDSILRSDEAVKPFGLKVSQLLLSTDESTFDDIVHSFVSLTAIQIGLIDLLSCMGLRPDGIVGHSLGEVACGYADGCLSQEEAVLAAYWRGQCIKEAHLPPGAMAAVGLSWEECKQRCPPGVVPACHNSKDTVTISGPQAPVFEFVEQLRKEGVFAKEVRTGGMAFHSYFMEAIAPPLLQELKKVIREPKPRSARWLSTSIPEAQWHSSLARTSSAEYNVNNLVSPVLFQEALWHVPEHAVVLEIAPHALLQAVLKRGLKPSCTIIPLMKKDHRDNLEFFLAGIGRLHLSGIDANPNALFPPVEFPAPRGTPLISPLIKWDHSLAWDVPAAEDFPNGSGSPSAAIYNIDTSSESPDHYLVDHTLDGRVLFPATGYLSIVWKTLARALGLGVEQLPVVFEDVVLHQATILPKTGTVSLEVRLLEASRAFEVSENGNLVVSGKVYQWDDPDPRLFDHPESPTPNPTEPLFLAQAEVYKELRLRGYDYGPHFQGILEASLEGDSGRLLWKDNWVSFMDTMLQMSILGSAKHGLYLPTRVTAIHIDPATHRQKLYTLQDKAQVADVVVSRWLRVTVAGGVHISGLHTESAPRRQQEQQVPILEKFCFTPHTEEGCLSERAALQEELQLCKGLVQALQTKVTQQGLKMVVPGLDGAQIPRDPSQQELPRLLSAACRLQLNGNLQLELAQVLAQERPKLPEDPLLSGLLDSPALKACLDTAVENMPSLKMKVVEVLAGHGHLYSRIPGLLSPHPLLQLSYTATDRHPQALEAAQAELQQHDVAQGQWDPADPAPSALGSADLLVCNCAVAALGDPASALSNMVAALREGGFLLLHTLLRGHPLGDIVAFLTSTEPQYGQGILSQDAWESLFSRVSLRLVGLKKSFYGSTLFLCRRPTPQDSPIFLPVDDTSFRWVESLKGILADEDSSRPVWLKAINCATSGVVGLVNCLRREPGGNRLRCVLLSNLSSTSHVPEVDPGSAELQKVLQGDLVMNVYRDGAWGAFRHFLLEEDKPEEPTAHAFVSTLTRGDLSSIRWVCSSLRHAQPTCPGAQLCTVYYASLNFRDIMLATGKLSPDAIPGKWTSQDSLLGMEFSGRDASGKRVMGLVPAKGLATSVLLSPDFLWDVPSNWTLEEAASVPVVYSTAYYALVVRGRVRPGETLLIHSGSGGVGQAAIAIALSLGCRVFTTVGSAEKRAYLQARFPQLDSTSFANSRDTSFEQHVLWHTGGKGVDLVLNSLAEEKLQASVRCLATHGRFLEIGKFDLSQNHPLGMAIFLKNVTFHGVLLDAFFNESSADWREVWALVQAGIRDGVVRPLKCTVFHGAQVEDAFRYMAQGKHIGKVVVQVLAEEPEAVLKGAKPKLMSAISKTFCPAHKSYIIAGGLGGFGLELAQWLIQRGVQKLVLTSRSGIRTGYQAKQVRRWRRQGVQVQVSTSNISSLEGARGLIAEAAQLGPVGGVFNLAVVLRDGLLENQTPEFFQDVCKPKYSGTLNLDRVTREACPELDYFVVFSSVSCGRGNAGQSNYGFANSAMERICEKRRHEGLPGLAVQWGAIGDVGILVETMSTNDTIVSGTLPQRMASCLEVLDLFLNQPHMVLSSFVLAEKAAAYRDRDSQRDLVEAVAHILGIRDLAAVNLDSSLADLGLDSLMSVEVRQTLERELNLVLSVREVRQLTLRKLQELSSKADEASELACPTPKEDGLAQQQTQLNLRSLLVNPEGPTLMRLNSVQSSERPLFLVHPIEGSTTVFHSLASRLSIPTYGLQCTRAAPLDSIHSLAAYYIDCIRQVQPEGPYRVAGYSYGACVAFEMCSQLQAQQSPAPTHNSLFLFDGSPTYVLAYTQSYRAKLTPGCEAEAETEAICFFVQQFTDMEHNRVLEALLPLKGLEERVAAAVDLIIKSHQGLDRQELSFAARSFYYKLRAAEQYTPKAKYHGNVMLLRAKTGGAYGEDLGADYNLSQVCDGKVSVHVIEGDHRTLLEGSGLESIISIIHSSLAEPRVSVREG
Paired box protein Pax-8, sequence (Q06710 whole entry): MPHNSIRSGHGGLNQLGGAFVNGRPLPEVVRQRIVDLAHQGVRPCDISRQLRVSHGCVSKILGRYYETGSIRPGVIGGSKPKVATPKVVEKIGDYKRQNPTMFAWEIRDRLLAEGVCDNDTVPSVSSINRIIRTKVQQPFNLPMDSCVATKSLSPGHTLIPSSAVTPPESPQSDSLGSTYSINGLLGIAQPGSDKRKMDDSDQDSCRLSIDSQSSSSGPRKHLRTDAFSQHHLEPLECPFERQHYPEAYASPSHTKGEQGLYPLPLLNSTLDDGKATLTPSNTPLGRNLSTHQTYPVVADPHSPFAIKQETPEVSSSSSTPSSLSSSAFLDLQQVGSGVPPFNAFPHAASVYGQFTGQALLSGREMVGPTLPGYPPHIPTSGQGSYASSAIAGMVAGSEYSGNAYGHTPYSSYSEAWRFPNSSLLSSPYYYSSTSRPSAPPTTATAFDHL
Genome polyprotein, sequence (P29990 2492-3391 limits assumed): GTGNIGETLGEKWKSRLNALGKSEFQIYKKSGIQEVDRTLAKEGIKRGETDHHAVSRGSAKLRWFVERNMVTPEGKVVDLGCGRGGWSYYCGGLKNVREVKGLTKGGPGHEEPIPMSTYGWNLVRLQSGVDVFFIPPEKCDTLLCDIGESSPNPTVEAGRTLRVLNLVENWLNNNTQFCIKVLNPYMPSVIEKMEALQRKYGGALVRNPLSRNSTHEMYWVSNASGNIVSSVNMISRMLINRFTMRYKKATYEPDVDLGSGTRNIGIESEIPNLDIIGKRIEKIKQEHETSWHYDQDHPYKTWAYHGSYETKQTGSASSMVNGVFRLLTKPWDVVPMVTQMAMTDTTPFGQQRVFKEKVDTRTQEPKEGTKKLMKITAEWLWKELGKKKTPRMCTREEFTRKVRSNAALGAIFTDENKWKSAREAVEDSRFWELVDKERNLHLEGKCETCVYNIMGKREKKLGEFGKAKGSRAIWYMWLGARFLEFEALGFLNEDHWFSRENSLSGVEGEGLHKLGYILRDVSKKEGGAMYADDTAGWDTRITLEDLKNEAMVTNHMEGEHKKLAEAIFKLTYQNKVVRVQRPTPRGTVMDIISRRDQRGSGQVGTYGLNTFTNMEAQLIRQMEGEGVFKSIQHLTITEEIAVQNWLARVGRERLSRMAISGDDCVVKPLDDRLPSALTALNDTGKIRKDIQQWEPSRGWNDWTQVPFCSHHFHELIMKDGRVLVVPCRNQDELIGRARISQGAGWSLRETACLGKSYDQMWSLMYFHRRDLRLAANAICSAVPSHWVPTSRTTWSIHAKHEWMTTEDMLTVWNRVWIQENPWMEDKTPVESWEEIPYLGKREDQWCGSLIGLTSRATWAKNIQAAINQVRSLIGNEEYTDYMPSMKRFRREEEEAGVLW

O=C(Nc1ccc(Cc2ccncc2)cc1)c1ccc(S(=O)(=O)N2CCCC2)cc1
IC50 (HEK293 [1]): 4.59 µM (active)
IC50 (HEK293 [2]): 13.6 µM (active)
IC50 (HEK293 [3]): 5.81 µM (active)
IC50 [4]: 33.4 µM (inactive)
EC50 (HEK293 [5]): 2.66 µM (active)

CC(=O)OCCCNc1cc(Sc2nc3ccccc3s2)c2nonc2c1[N+](=O)[O-]
CC50 (Vero [6]): 16.8 µM (active)
IC50 [7]: > 80 µM (inactive)
EC50 [8]: 4.76 µM (active)
IC50 (Fatty acid synthase [9]): 2.08 µM (active)
IC50 [10]: 2.06 µM (active)
EC50 [11]: 1.38 µM (active)
IC50 (Fatty acid synthase [12]): 1.35 µM (active)
AC50 [13]: 24.4 µM (active)
AC50 [14]: 11.3 µM (active)
EC50 (Beta-galactosidase): > 40 µM (inactive)
EC50 [15]: 3.26 µM (active)
AC50 [16]: 4.7 µM (active)
IC50 (Genome polyprotein): > 100 µM (active)
EC50 (Streptococcus): 3.7 µM (active)
EC50 (Streptokinase A): > 150 µM (not active)

CC(C)(C)c1ccc(C(=O)NC(=S)Nc2sc3c(c2C#N)CCC3)cc1
IC50 (Vero [17]): > 25 µM (active)

CC(=O)[C@@]1(O)C(C)CC2C3C=C(C)C4=Cc5c(cnn5-c5ccccc5)C[C@]4(C)C3C(O)C[C@@]21C (stereo partly specified)
AC50 [18]: 1.15 µM (active)
IC50 [19]: > 16 µM (inactive)
CC50 (Vero [20]): > 100 µM (active)
EC50 [15]: 5.57 µM (active)
EC50 (Streptococcus): > 150 µM (not active)
IC50 [21]: < 0.25 µM (active)
EC50 (Streptokinase A): 2.97 µM (active)

CCOc1ccccc1C=NNC(=O)CCCCC(=O)NN=Cc1ccccc1OCC
IC50 [7]: > 80 µM (inactive)

CN(C)c1ccc(C(=O)N/N=C/C23CC[C@@H](O)CC2(O)CC[C@@H]2[C@@H]3CCC3(C)C(C4=CC(=O)OC4)CCC23O)cc1 (stereo partly specified)
IC50 [22]: > 47.1 µM (inactive)
CC50 (Vero [23]): 22 µM (active)
EC50 [24]: > 53 µM (inactive)
EC50 (BJ [25]): 14.2 µM (active)
EC50 [26]: 3.56 µM (active)
EC50 (BJ [27]): 3.63 µM (active)
CC50 (Vero [20]): 17.9 µM (active)
EC50 (BJ [28]): 19 µM (active)
IC50 (Vero [17]): > 25 µM (active)

CC(C)(C)c1ccc(CN(Cc2ccccc2)C(c2ccccn2)c2nnnn2C(C)(C)C)cc1 (stereo unspecified)
EC50 [8]: > 60 µM (not active)
IC50 [19]: 3.84 µM (active)
EC50 [11]: 1.76 µM (active)
AC50 [13]: 67.9 µM (active)
AC50 [14]: 24.2 µM (active)
AC50 [16]: 13.5 µM (active)
IC50 [21]: 3.07 µM (active)

CCOC(=O)N1CCC(N(C(=O)Nc2ccc(Cl)c(Cl)c2)C(C)CC)CC1 (stereo unspecified)
IC50 [19]: 2.45 µM (active)
IC50 [21]: 2.7 µM (active)

O=C(NC12CC3CC(CC(C3)C1)C2)c1ccc([N+](=O)[O-])o1
AC50 [18]: 5.23 µM (active)
CC50 [29]: 14.6 µM (active)
AC50 (Paired box protein Pax-8): 4.39 µM (active)
IC50 (cells): 7.14 µM (active)
EC50 [15]: 1.2 µM (active)
CC50 [30]: 10.4 µM (active)
CC50 [31]: 12.4 µM (active)
EC50 (Streptococcus): 7.69 µM (active)
EC50 (Streptokinase A): > 150 µM (not active)
